In patent US20030119895A1, “Methods using a combination of a 3-heteroaryl-2-indolinone and a cyclooxygenase-2 inhibitor for the treatment of neoplasia” (Pharmacia Corporation, priority 1998, published 2003):

Experiments:
Assay type in all cases: cell-based
[1] = tested on: HUV-EC-C cells (human umbilical vein endothelial cells); assay: HUV-EC-C Assay, VEGF-stimulated [3H] thymidine incorporation; conditions: Mitogenesis in Endothelial Cells
[2] = tested on: HUV-EC-C cells (human umbilical vein endothelial cells); assay: HUV-EC-C Assay, a-FGF (ECGF)-stimulated [3H] thymidine incorporation; conditions: Mitogenesis in Endothelial Cells
Method: The following protocol may also be used to measure the composition's activity:
1. […] After cells have detached from the flask, add an equal volume of assay medium and transfer to a 50 ml sterile centrifuge tube (Fisher Scientific; catalogue no. 05-539-6).
2. Wash the cells with about 35 ml assay medium in the 50 ml sterile centrifuge, tube by adding the assay medium, centrifuge for 10 minutes at approximately 200× g, aspirate the supernatant, and resuspend with 35 ml D-PBS. Repeat the wash two more times with D-PBS, resuspend the cells in about 1 ml assay medium/15 cm^2 of tissue culture flask. Assay medium consists of F12K medium (Gibco BRL; catalogue no. 21127-014)+0.5% heat-inactivated fetal bovine serum. Count the cells with a Coulter Counter.RTM.v Coulter Electronics, Inc.) and add assay medium to the cells to obtain a concentration of 0.8-1.0×10^5 cells/ml.
3. Add cells to 96-well flat-bottom plates at 100 μl/well or 0.8-1.0×10^4 cells/well; incubate about 24 h at 37° C., 5% CO2.
1. Make up two-fold drug titrations in separate 96-well plates, generally 50 μM on down to 0 μM. Use the same assay medium as mentioned in day 0, step 2 above. Titrations are made by adding […] of drug at 200 μM (4× the final well concentration) to the top well of a particular plate column. Since the stock drug concentration is usually 20 mM in DMSO, the 200 μM drug concentration contains 2% DMSO. Therefore, diluent made up to 2% DMSO in assay medium (F12K+0.5% fetal bovine serum) is used as diluent for the drug titrations in order to dilute the drug but keep the DMSO concentration constant. Add this diluent to the remaining wells in the column at 60 μl/well. Take 60 μl from the 120 μl of 200 μM drug dilution in the top well of the column and mix with the 60 μl in the second well of the column. Take 60 μl from this well and mix with the 60 μl in the third well of the column, and so on until two-fold titrations are completed. When the next-to-the-last well is mixed, take 60 μl of the 120 μl in this well and discard it. Leave the last well with 60 μl of DMSO/media diluent as a non-drug-containing control. Make 9 columns of titrated drug, enough for triplicate wells each for 1) VEGF (obtained from Pepro Tech Inc., catalogue no. 100-200, 2) endothelial cell growth factor (ECGF) (also known as acidic fibroblast growth factor, or aFGF) (obtained from Boehringer Mannheim Biochemica, catalogue no. 1439 600), and assay media control. ECGF comes as a preparation with sodium heparin.
2. Transfer 50 μl/well of the drug dilutions to the 96-well assay plates containing the 0.8-1.0×10^4 cells/100 μl/well of the HUV-EC-C cells from day 0 and […] incubate ~2 h at 37° C., 5% CO2.
3. In triplicate, add 50 μl/well of 80 ng/ml VEGF, 20 ng/ml ECGF, or media control to each drug condition. As with the drugs, the growth factor concentrations are 4× the desired final concentration. Use the assay media from day 0 step 2 to make the concentrations of growth factors. Incubate approximately 24 hours at 37° C., 5% CO2. Each well will have 50 μl drug dilution, 50 μl growth factor or media, and 100 ul cells,=200 ul/well total. Thus the 4× concentrations of drugs and growth factors become 1× once everything has been added to the wells.
1. Add ^3H-thymidine (Amersham; catalogue no. TRK-686) at 1 μCi/well (10 μl/well of 100 μCi/ml solution made up in RPMI media+10% heat-inactivated fetal bovine serum) and incubate about 24 h at 37° C., 5% CO2.
Note: ^3H-thymidine is made up in RPMI media because all of the other applications for which we use the ^3H-thymidine involve experiments done in RPMI. The media difference at this step is probably not significant. RPMI was obtained from Gibco BRL, catalogue no. 11875-051.
1. Freeze plates overnight at −20° C.
1. Thaw plates and harvest with a 96-well plate harvester (Tomtec Harvester 96.RTM.) onto filter mats (Wallac; catalogue no. 1205-401); read counts on a Wallac Betaplate™ liquid scintillation counter.

FGFR = assay: FGF ligand-induced BrdU incorporation, mitogenesis in 3T3/EGFR cells

IC50 ([1]; Homo sapiens, HUVEC)	SMILES	IC50 ([2]; Homo sapiens, HUVEC)	also measured
25.6 µM	CN(C)c1ccc(C=C2C(=O)N(C)c3ccccc32)cc1 [SU4952, 3-(4-Dimethylaminobenzylidenyl)-1-methyl-2-indolinone]	19.3 µM	
34.3 µM	CN(C)c1ccc(C=C2C(=O)Nc3ccc(Cl)cc32)cc1 [SU4967, 5-Chloro-3-(4-dimethylaminobenzylidenyl)-2-indolinone]	16.3 µM	IC50 (FGFR): 4.9 µM
5.1 µM	O=C1Nc2ccccc2C1=Cc1ccc(F)cc1 [SU5205, 3-(4-Fluorobenzylidenyl)-2-indolinone]	11.8 µM	
0.9 µM	Cc1c(C=O)[nH]c(C=C2C(=O)Nc3ccccc32)c1C [SU5405, 3-[(3,4-Dimethyl-2-formylpyrrole-5-yl)methylene)-2-indolinone]	0.6 µM	
< 0.8 µM	Cc1c[nH]c(C=C2C(=O)Nc3ccccc32)c1C [SU5406, 3-[(3,4-Dimethylpyrrol-2-yl)methylene]-2-indolinone]		
< 0.8 µM	CCOC(=O)c1c(C)[nH]c(C=C2C(=O)Nc3ccccc32)c1C [SU5408, 3-[(2,4-Dimethyl-3-ethoxycarbonylpyrrol-5-yl)methylene]-2-indolinone]	22.7 µM	
13.6 µM	O=C1Nc2ccccc2C1=Cc1sccc1Br [SU5418, 3-[(3-Bromothiene-2-yl)methylene]-2-indolinone]	40 µM	
11.4 µM	Cc1cc(C=C2C(=O)Nc3ccccc32)oc1C [SU5421, 3-[(2,3-Dimethylfuran-5-yl)methylene]-2-indolinone]		
0.16 µM	O=C1Nc2ccccc2C1=Cc1ccc([N+](=O)[O-])o1 [SU5432, 3-[(2-Nitrofuran-5-yl)methylene]-2-indolinone]	0.14 µM	
1.2 µM	CCc1ccc(C=C2C(=O)Nc3ccccc32)s1 [SU5451, 3-[(2-Ethylthien-5-yl)methylene]-2-indolinone]	30 µM	
20 µM	CCc1c(C=C2C(=O)Nc3ccccc32)[nH]c(C(=O)O)c1C [SU5455, 3-[(5-Carboxy-3-ethyl-4-methylpyrrol-2-yl)methylene]-2-indolinone]	20 µM	
< 0.07 µM	O=C1Nc2ccccc2C1=Cc1cccn1-c1cc(Cl)cc(Cl)c1 [SU5461, 3-{[1-(3,5-Dichlorophenyl)pyrrol-2-yl]methylene}-2-indolinone]	< 0.07 µM	
0.14 µM	CCOC(=O)c1c[nH]c(C=C2C(=O)Nc3ccccc32)c1C [SU5463]	7.9 µM	
3.8 µM	Cn1cccc1C=C1C(=O)Nc2ccccc21 [SU5464, 3-[(1-Methylpyrrol-2-yl)methylene]-2-indolinone]	12.9 µM	
2 µM	Cc1cc(C=C2C(=O)Nc3ccccc32)[nH]n1 [SU5472, 3-[(3-Methylpyrazol-5-yl)methylene]-2-indolinone]	5 µM	

Second part, the compound before the results:

SMILES	IC50 ([1]; Homo sapiens, HUVEC)	IC50 ([2]; Homo sapiens, HUVEC)	also measured
COc1cccc(C=C2C(=O)Nc3ccccc32)c1OC [SU4794, 3-(2,3-dimethoxybenzylidenyl)-2-indolinone]	4.8 µM	35.7 µM	
COc1ccc(Br)cc1C=C1C(=O)Nc2ccccc21 [SU4796, 3-(3-bromo-6-methoxybenzylidenyl)-2-indolinone]			IC50 [1]: 30.7 µM; IC50 [2]: 35.8 µM
O=C1Nc2ccccc2C1=Cc1ccco1 [SU4798, 3-[(furan-2-yl)methylene]-2-indolinone]	43.2 µM		
CC(=O)Nc1ccc(C=C2C(=O)Nc3ccccc32)cc1 [SU4799, 3-(4-acetamidobenzylidenyl)-2-indolinone]	19.9 µM		
COc1ccccc1C=C1C(=O)Nc2ccccc21 [SU4949, 3-(2-Methoxybenzylidenyl)-2-indolinone]			IC50 [1]: 3.4 µM; IC50 [2]: 3.7 µM
O=C1Nc2ccc(Cl)cc2C1=Cc1ccc(Br)cc1 [SU4972, 3-(4-Bromobenzylidenyl)-5-chloro-2-indolinone]			IC50 [2]: 1.4 µM
CCCCN(CCCC)c1ccc(C=C2C(=O)Nc3ccccc32)cc1 [SU4979, 3-(4-Di-n-butylaminobenzylidenyl)-2-indolinone]	4.4 µM	4.9 µM	
O=C1Nc2ccccc2C1=Cc1ccc(N2CCOCC2)cc1 [SU4981, 3-[4-(Morpholin-4-yl)benzylidenyl]-2-indolinone]	0.6 µM		IC50 (FGFR): 10 µM
O=C1Nc2ccccc2C1=Cc1ccc(Cl)c(Cl)c1 [SU5201, 3-(3,4-Dichlorobenzylidenyl)-2-indolinone]			IC50 [1]: 2.5 µM; IC50 [2]: 2.3 µM
O=C1Nc2ccccc2C1=Cc1cccs1 [SU5208, 3-[(Thien-2-yl)methylene]-2-indolinone]	2.9 µM	130 µM	
O=C1Nc2ccccc2C1=Cc1ccc(-c2cc(C(F)(F)F)cc(C(F)(F)F)c2)o1 [SU5217]			IC50 [1]: 9.6 µM; IC50 [2]: 10.5 µM
CN(C)c1c(C=C2C(=O)Nc3ccccc32)cc(C=C2C(=O)Nc3ccccc32)c(N(C)C)c1C#N [SU5218, 2,6-Di-(dimethylamino)-3,5-di-[(indolin-2-one-3-ylidenyl)methyl]-phenylcyanide]	2.4 µM	2.7 µM	
O=C1Nc2ccccc2C1=Cc1ccc(I)o1 [SU5409]			IC50 [1]: 26 µM
CSc1ccc(C=C2C(=O)Nc3ccccc32)s1 [SU5419, 3-[(2-Methylmercaptothien-5-yl)methylene]-2-indolinone]	0.7 µM		
O=C1Nc2ccccc2C1=Cc1ccco1 [SU5429, 3-[(Furan-2-yl)methylene]-2-indolinone]	27.6 µM		
O=C1Nc2ccccc2C1=Cc1ccc(Br)o1 [SU5438, 3-[(5-Bromofuran-2-yl)methylene]-2-indolinone]	39.8 µM	33 µM	
CCOC(=O)CCc1c(C(=O)OCC)[nH]c(C=C2C(=O)Nc3ccccc32)c1CC(=O)OCC [SU5454, 3-[(5-Ethoxycarbonyl-4-ethoxycarbonylethyl-3-ethoxycarbonylmethylpyrrol-2-yl)methylene]-2-indolinone]	3.8 µM	3.4 µM	
O=C1Nc2ccccc2C1=Cc1cccn1-c1ccc(Cl)cc1 [SU5462]			IC50 [1]: 0.5 µM; IC50 [2]: 0.8 µM
CCOC(=O)CCc1c(C=C2C(=O)Nc3ccccc32)[nH]c(C(=O)OCC)c1CC(=O)OCC [SU5465, 3-[(5-Ethoxycarbonyl-3-ethoxycarbonylethyl-4-ethoxylcarbonylmethylpyrrol-2-yl)methylene]-2-indolinone]			IC50 (FGFR): 25 µM
Cc1cnc(C=C2C(=O)Nc3ccccc32)[nH]1 [SU5468, 3-[(5-Methylimidazol-2-yl)methylene]-2-indolinone]	0.54 µM	8.7 µM	
Cc1cnc(C=C2C(=O)Nc3ccccc32)s1 [SU5469, 3-[(5-Methylthiazol-2-yl)methylene]-2-indolinone]			IC50 (FGFR): 15 µM
O=C1Nc2ccccc2C1=Cc1c[nH]cn1 [SU5473, 3-[(Imidazol-4-yl)methylene]-2-indolinone]			IC50 (FGFR): 50 µM
O=C1Nc2ccccc2C1=Cc1c(Br)cnn1Cc1ccc(Cl)cc1 [SU5475, 3-[(4-Bromo-1-(4-chlorobenzyl)pyrazol-5-yl)methylene]-2-indolinone]			IC50 (FGFR): 9 µM
CCc1c(C)[nH]c(C=C2C(=O)Nc3ccccc32)c1C [SU5477, 3-[(4-Ethyl-3,5-dimethylpyrrol-2-yl)methylene]-2-indolinone]	0.05 µM	37.8 µM	
